Test results reported in patent US4397858A, “Treatment of rheumatism and arteriosclerosis with n-halogenophenyl-benzisothiazoles” (A. Nattermann & Cie GmbH, priority 1980, dated 1983).

Columns and labels:
[1] = system: rats; assay: Granuloma test (Cotton pellet test) according to R. MEIER; format: in vivo; conditions: rat
Text: Granuloma test (Cotton pellet test) according to R. MEIER et al. Experientia 6, 469 (1950)
In this test, cottonwool pellets impregnated with croton oil were implanted subcutaneously in the test animals (rats) to induce the formation of granulomas in the connective tissue. After the animals had been killed, the granulomas were excised and weighed moist or dry. The anti-proliferative effect of an antiphlogistic is reflected in light weights of the granulomas by comparison with untreated controls.

[2] = Toxicity, mice, oral (lethality); conditions: mouse, in vivo
[3] = system: rats; assay: Rat paw oedema test (HILLEBRECHT), carragenin; format: in vivo; conditions: 3 hours, relative to control group
Method: Determination of antiphlogistic activity by HILLEBRECHT's rat paw oedema test (J. HILLEBRECHT, Arzeim. Forsch. 1954, Vol. 4, page 607). An oedema was produced in one of the rear paws of rats weighing from 120 g to 150 g by the subplantar injection of carragenin (0.5% in a 0.9% NaCl-solution) in a quantity of 0.1 ml of solution per paw. After administration of the test substance, which generally should not exceed a volume of 10 ml per kg of body weight, the volume of the paw is determined in an overflow. After 3 hours, the final value is determined. For each dose, the test is carried out with 10 test animals and 10 control animals of one sex and repeated with the same number of animals of the other sex. For the purposes of evaluation, inhibition of the oedema is expressed as a percentage on relation to the control group.

[4] = system: Wistar rats; assay: Adjuvant arthritis (C. M. PEARSON), Freund's adjuvant; format: in vivo, Wistar rat; conditions: rat
Method: 3. Adjuvant arthritis (C. M. PEARSON, proc.Soc.exp.Biol. 91, 95-101 (1956)
10 Wistar rats weighing from 120 g to 150 g are used per dose. The same number of animals is used for control purposes. An arthritis is induced by the administration of 0.5 ml of Freund's adjuvant by subplantar injection. The test lasts 17 days. At the beginning of the test, the paw volume of all four extremities is determined and used as the starting value. […] For evaluation purposes, the difference between the starting volume and final volume of the paws both of the test group and of the control group is calculated and inhibition expressed as a percentage.

[5] = system: stomach mucosa of Wistar rats; assay: Ulcer test (ulcer-inducing effect in rats); format: in vivo, Wistar rat; conditions: rat
Method: J. Toxicol. […] A bleeding stomach ulcer is induced by oral administration of the active principle. After 3.5 hours, the animals are killed, their stomachs removed, cut open along the major curvature and stretched across a Styropor plate. The frequency and extent of average ulcer formation in the test and control groups is determined.

[6] = 1.0 mg/kg p.o. (printed 1 for Indometacin)
[7] = 1 mg/kg p.o. (1.0 for Indometacin), 7th day p.i.
[8] = 1 mg/kg p.o. (1.0 for Indometacin), 14th day p.i.
[9] = 1 mg/kg p.o. (1.0 for Indometacin), 17th day p.i.

O=c1c2ccccc2sn1-c1ccc(Cl)cc1 [2-(4-chlorophenyl)-1,2-benzisothiazol-3(2H)-one]
Reduction in weight of the granulomas ([1]; 0.1 mg/kg p.o.): -26%
Reduction in weight of the granulomas [1, 6]: -43%
Reduction in weight of the granulomas ([1]; 10 mg/kg p.o.): -44%
mortality ([2]; 3 160 mg/kg p.o.): 0%
Oedema inhibition ([3]; 0.01 mg/kg p.o.): -13%
Oedema inhibition ([3]; 0.1 mg/kg p.o.): -22%
Oedema inhibition ([3]; 1.0 mg/kg p.o.): -36%
Inhibition (adjuvant arthritis, paw volume) [4, 7]: -27%
Inhibition (adjuvant arthritis, paw volume) [4, 8]: -44%
Inhibition (adjuvant arthritis, paw volume) [4, 9]: -45%
Inhibition (adjuvant arthritis, paw volume) ([4]; 3.2 mg/kg p.o., 7th day p.i.): -46%
Inhibition (adjuvant arthritis, paw volume) ([4]; 3.2 mg/kg p.o., 14th day p.i.): -51%
Inhibition (adjuvant arthritis, paw volume) ([4]; 3.2 mg/kg p.o., 17th day p.i.): -56%
Ulcer-inducing effect ([5]; 1 mg/kg p.o., 3.5 hours): 0
Ulcer-inducing effect ([5]; 10 mg/kg p.o., 3.5 hours): 0
Ulcer-inducing effect ([5]; 100 mg/kg p.o., 3.5 hours): 0

COc1ccc2c(c1)c(CC(=O)O)c(C)n2C(=O)c1ccc(Cl)cc1 [Indometacin, 1-(p-chlorobenzoyl)-5-methoxy-2-methyl-3-indole acetic acid, reference compound]
Reduction in weight of the granulomas [1, 6]: -21%
Reduction in weight of the granulomas ([1]; 3.2 mg/kg p.o.): -7%
Reduction in weight of the granulomas ([1]; 5.6 mg/kg p.o.): -6%
mortality ([2]; 38 mg/kg p.o.): 50%
Oedema inhibition ([3]; 3.8 mg/kg p.o.): -26%
Oedema inhibition ([3]; 5.6 mg/kg p.o.): -45%
Inhibition (adjuvant arthritis, paw volume) ([4]; 0.32 mg/kg p.o., 7th day p.i.): -20%
Inhibition (adjuvant arthritis, paw volume) ([4]; 0.32 mg/kg p.o., 14th day p.i.): -26%
Inhibition (adjuvant arthritis, paw volume) ([4]; 0.32 mg/kg p.o., 17th day p.i.): -33%
Inhibition (adjuvant arthritis, paw volume) [4, 7]: -50%
Inhibition (adjuvant arthritis, paw volume) [4, 8]: -40%
Inhibition (adjuvant arthritis, paw volume) [4, 9]: -40%
Ulcer-inducing effect ([5]; in vivo, po, 3.2 mg/kg): ++
Ulcer-inducing effect ([5]; in vivo, po, 5.6 mg/kg): +++
Ulcer-inducing effect ([5]; in vivo, po, 7.5 mg/kg): +++
